In patent US10874626B2, “Formulation for use in a method of treatment of pain” (NEVAKAR Inc., priority 2016, dated 2020):

Legend:
Male rats = assay: Toxicologic profile in rats (clinical pathology, necropsy, histopathology); settings: 24 h after 15 minute IV infusion, infusion site, lung, liver, kidney
[1] = system: mouse whole blood (male), red blood cells; assay: In vitro hemolysis test, mouse blood; settings: mouse whole unclotted blood, concentrations tested, 15 min at 37° C.
Method: (§1) APAP and GBP alone or in combination were evaluated in the in vitro hemolysis test using four biologic matrices (mouse, rat, dog and human whole unclotted blood) to determine the hemolytic potential for each on red blood cells.

Male ICR mice = assay: Mouse RotoRod/Acelerorod test; settings: 15 minute IV infusion, 10 mg Acetaminophen/mL, 8 mg Gabapentin/mL, 1, 2, 4, 6 h
Method: Mouse tail flick test was conducted to evaluate test somatic pain and mouse rotorod/acelorod test evaluated behavioral changes, specifically somnolence or dizziness
In each case a positive control was administered as described below.
Male ICR mice were trained on a RotoRod/Acelerod at a continuous accelerating speed from 4 to 30 rpm/min during a time period of 4 minutes for at least 3 times on day 0. Vehicle or test article at a single dose is administered by intravenous infusion over 15 minutes starting 30 minutes before the test period starts and chlorpromazine (30 mg/kg, PO) was administered by oral gavage 60 minutes before the start of the test period. At 1, 2, 4, and 6 hours after the start of the test the mice are placed on the accelerating rotorod (increasing from 4 to 30 rpm/min during a 4 min period) and the time (seconds) the mouse remained on the rotorod was recorded. One-way ANOVA followed by Dunnett's test is applied for comparison between vehicle control and test article groups. P<0.05 is considered significant.
A baseline was measured before administration of the test agents and at 1, 2, 4 and 6 h post the start of the study. The effect of the compounds was evaluated in the standard RotoRod/Acelerorod test.

[2] = system: human (pooled) whole blood, red blood cells; assay: In vitro hemolysis test, human blood; settings: human whole unclotted blood, concentrations tested, 15 min at 37° C.
Method: as §1

[3] = oral; cited from earlier work
[4] = system: beagle dog whole blood (male), red blood cells; assay: In vitro hemolysis test, dog blood; settings: dog whole unclotted blood, concentrations tested, 15 min at 37° C.
Method: as §1

[5] = Stability of GBP in presence of different stabilizers and solvents; type: physicochemical; settings: GBP 9 mg/mL in acetate buffer, PVP 10 mg/mL
Method: GBP containing formulations were prepared by dissolving GBP to a concentration of 9 mg/mL in acetate buffer. A first set of samples were tested for assay and impurities after the initial preparation of formulation, Another set of samples were steam sterilized at 121° C. for 15 min and were tested for assay and impurity levels.

[6] = system: rat whole blood (male), red blood cells; assay: In vitro hemolysis test, rat blood; settings: rat whole unclotted blood, concentrations tested, 15 min at 37° C.
Method: as §1

[7] = Koshy et al; cited from earlier work

Question: Which “histopathology compared to the vehicle control” value (Male rats) does the source give for “1-(aminomethyl) cyclohexane acetic acid [Gabapentin]” here?
Answer: Its value is “no changes in the histopathology in any tissue sampled”.

Question: And the Interpretation of hemolysis [1]?
Answer: The Interpretation of hemolysis was “not considered to be hemolytic”.

Question: And the “motor control (time on rotorod) compared to the vehicle control” value (Male ICR mice)?
Answer: The value was “no statistically significant decrease in motor control”.

Question: What about the Interpretation of hemolysis [2] of the same molecule?
Answer: Its Interpretation of hemolysis is “not considered to be hemolytic”.

Question: And the “Plasma concentrations versus dose” value [3]?
Answer: Its value is “proportional with dose up to 1800 mg daily and then plateau at approximately 3600 mg daily”.

Question: What about the Interpretation of hemolysis [4] of the same molecule?
Answer: The Interpretation of hemolysis was “not considered to be hemolytic”.

Question: And the “stability of GBP with stabilizer” value [5]?
Answer: The value was “more stable”.

Question: And the Interpretation of hemolysis [6]?
Answer: The Interpretation of hemolysis was “not considered to be hemolytic”.

Question: Which Interpretation of hemolysis [1] does the source give for `CC(=O)Nc1ccc(O)cc1` [Acetaminophen, acetaminophen] here?
Answer: The Interpretation of hemolysis was “not considered to be hemolytic”.

Question: What about the “motor control (time on rotorod) compared to the vehicle control” value (Male ICR mice) of the same molecule?
Answer: Its value is “no statistically significant decrease in motor control”.

Question: What about the Interpretation of hemolysis [2] of the same molecule?
Answer: The Interpretation of hemolysis was “not considered to be hemolytic”.

Question: What about the Interpretation of hemolysis [4] of the same molecule?
Answer: Its Interpretation of hemolysis is “not considered to be hemolytic”.

Question: And the “pH range in which hydrolysis of APAP is minimum” value [7]?
Answer: Its value is 5-7.

Question: What about the Interpretation of hemolysis [6] of the same molecule?
Answer: Its Interpretation of hemolysis is “not considered to be hemolytic”.
